Here are results for four molecules from EP0852233A1, “CYCLOSPORIN PHOSPHATE DERIVATIVES AND MEDICINAL COMPOSITION” (NIPPON SHINYAKU COMPANY, LIMITED, priority 1995, dated 1997).

Data set [1] can be described thus: Absorption after oral administration and release of the phosphate group (blood concentration by HPLC). The class given is in vivo. The settings on record: SD rats, oral 30 mg/kg; for level at 0.5 h / level at 1 h / level at 2 h / level at 4 h / level at 8 h / level at 24 h: rat, blood, read-out: Blood concentration of the administered compound (unchanged). How it is done: Each blood sample was centrifuged (10,000 rpm x 5 min.) and the supernatant was applied onto a pretreatment column (Sep-Pack C18 Vac, Waters). After the column was rinsed with distilled water and 40% methanol, elution was carried out in 10% steps from 50% methanol to 100% methanol and 50 µl of the eluate was injected into an HPLC. From the concentration value thus found, the blood concentration was calculated.

Data set [2] deals with IL-2 production of T cells (Jurkat cells). Description: IL-2 production inhibitory activity (Jurkat cells stimulated with concanavalin A; IL-2 determined by CTLL-2 bioassay/MTT). The data set is classed as cell-based, human. The note with it: 24 hours. How it is done: It is known that the immunosuppressant action of cyclosporins is based on inhibition of the IL-2 gene of T cells. Therefore, the biological activity of cyclosporins can be assayed using inhibition of the IL-2 production of T cells as an indicator. Accordingly, using Jurkat cells (a tumor cell line derived from human T cells), the biological activity of the compound of the invention was evaluated.
Jurkat cells grown to the logarithmic phase in RPMI-1640 medium (Flow Laboratories; 10% heat-inactivated FBS, 300 mg/l L-glutamine, 50 U/ml streptomycin, 50 U/ml penicillin, 25 mM Hepes, 50 µM 2-mercaptoethanol) were seeded onto a 96-well microtiter plate at a density of 8x10^5 cells/ml, 0.1 ml/well. Then, as an IL-2 production inducer, 10 µl of concanavalin A was added, followed by addition of 20 µl each of samples varying in concentration. After the final volume was adjusted to 0.2 ml/well with the medium, the plate was incubated in a CO2 incubator at 37°C for 24 hours. After completion of culture, the reaction mixture in each well was centrifuged (1000 rpm x 5 min.) and the supernatant was recovered.
Determination of IL-2 was carried out by the bioassay using CTLL-2 cells which are known as IL-2-dependent cells.
To 0.1 ml of CTLL-2 cells (40,000/ml) in logarithmic phase, 0.1 ml of an appropriate dilution of the above supernatant was added, and the cells were cultured in a CO2 incubator at 37°C for 48 hours. After completion of culture, the cell growth was determined by the MTT assay. The relation between growth of CTLL-2 cells and IL-2 concentration was previously plotted for a recombinant IL-2 and using the plots as a standard curve, the IL-2 concentration was estimated from the degree of growth of CTLL-2 cells.
The IL-2 production inhibition rate was calculated by means of the following equation (1) and the IC50 value of each sample was calculated from the inhibition rates at various concentrations. IL-2 production inhibition rate (%) = (1-(IL-2 production by cells in presence of sample)/(IL-2 production by cells in absence of sample)) x100 [formula]

The next data set in a line: physchem. The note with it: water.
For data set [3] the following is noted: rat, in vivo.
Description: Nephrotoxicity was investigated by the lithium clearance method.
Each sample was adjusted to a concentration of 5 mg/ml and 2 ml/kg was administered intraperitonally for 7 consecutive days. The control group similarly received the solvent used for preparation of the sample solutions. […] On the following day the blood was drawn from the jugular vein and the animals were placed in metabolism cages. Under feeding with the lithium diet, the 24-hour urine was collected and the urine volume was measured using a measuring cylinder. After the rats were taken out from the metabolism cages, blood sampling was immediately carried out and the mean lithium value of two measurements before and after urine collection was taken as the blood lithium value of the corresponding rat. The body weight of rats was determined immediately after they were taken out from metabolism cages. To determine the blood lithium concentration, each blood sample was centrifuged at 3000 rpm for 10 minutes and the plasma was taken for determination. […] 24-hr CLi /100 g = urine volume x 100/rat body weight · urinary Li value/blood Li value [formula]

≈ marks a conversion by molar mass, not a printed value.

Description for physchem: From each test tube, 250 µl was taken into a centrifuge tube and centrifuged (10,000 rpm x 10 min.). The supernatant was recovered, diluted with distilled water, and subjected to HPLC for assay.
Column: Inertsil C8 (4.6x250 mm) Mobile phase: acetonitrile-methanol-distilled water-phosphoric acid (50:35:15:0.005) Column temperature: 75°C Detection: UV 210 nm

Turning to `C/C=C/C[C@@H](C)[C@@H](O)[C@H]1C(=O)N[C@@H](CC)C(=O)N(C)CC(=O)N(C)[C@@H](CC(C)C)C(=O)N[C@@H](C(C)C)C(=O)N(C)[C@@H](CC(C)C)C(=O)N[C@@H](C)C(=O)N[C@H](COP(=O)(O)O)C(=O)N(C)[C@@H](CC(C)C)C(=O)N(C)[C@@H](CC(C)C)C(=O)N(C)[C@@H](C(C)C)C(=O)N1C` [[Phosphono-D-serine^8]cyclosporin A, [phosphono-D-serine^8]cyclosporin A], in data set [1], the “Sum of blood concentrations up to 24 hr, Sum of (2) and (3)” value is 13501 ng/mL; the “Sum of blood concentrations up to 24 hr, [D-serine^8]cyclosporin A which released phosphoric acid” value is 10448 ng/mL; the “Sum of blood concentrations up to 24 hr, administered compound (unchanged)” value was 3053 ng/mL. Moreover, in data set [1] (0.5 hr after administration), the “Blood concentration of [D-serine^8]cyclosporin A which released phosphoric acid” value came out at 1413 ng/mL; the “Blood concentration, Sum of (2) and (3) (released plus unchanged compound)” value was determined as 1804 ng/mL; the level at 0.5 h turned out to be 391 ng/mL. Also, in data set [1] (1 hr after administration), the “Blood concentration of [D-serine^8]cyclosporin A which released phosphoric acid” value was found to be 3115 ng/mL; the “Blood concentration, Sum of (2) and (3) (released plus unchanged compound)” value was 3928 ng/mL; the level at 1 h was found to be 813 ng/mL. In data set [1] (2 hr after administration), the “Blood concentration of [D-serine^8]cyclosporin A which released phosphoric acid” value came out at 2516 ng/mL; the “Blood concentration, Sum of (2) and (3) (released plus unchanged compound)” value is 3437 ng/mL; the level at 2 h worked out at 971 ng/mL. Further, in data set [1] (4 hr after administration), the “Blood concentration of [D-serine^8]cyclosporin A which released phosphoric acid” value worked out at 2391 ng/mL; the “Blood concentration, Sum of (2) and (3) (released plus unchanged compound)” value stood at 2927 ng/mL; the level at 4 h came to 536 ng/mL. In data set [1] (8 hr after administration), the “Blood concentration of [D-serine^8]cyclosporin A which released phosphoric acid” value was determined as 910 ng/mL; the “Blood concentration, Sum of (2) and (3) (released plus unchanged compound)” value stood at 1221 ng/mL; the level at 8 h came out at 311 ng/mL. Further, in data set [1] (24 hr after administration), the “Blood concentration of [D-serine^8]cyclosporin A which released phosphoric acid” value stood at 103 ng/mL; the “Blood concentration, Sum of (2) and (3) (released plus unchanged compound)” value amounted to 134 ng/mL; the level at 24 h was found to be 31 ng/mL.

What is called thermodynamic solubility is solubility found after equilibrating the solid with the medium. For the molecule `C/C=C/C[C@@H](C)[C@@H](O)[C@H]1C(=O)N[C@@H](CC)C(=O)N(C)CC(=O)N(C)[C@@H](CC(C)C)C(=O)N[C@@H](C(C)C)C(=O)N(C)[C@@H](CC(C)C)C(=O)N[C@@H](C)C(=O)N[C@H](CO)C(=O)N(C)[C@@H](CC(C)C)C(=O)N(C)[C@@H](CC(C)C)C(=O)N(C)[C@@H](C(C)C)C(=O)N1C` [[D-serine^8]cyclosporin A, reference compound], in data set [1], the “Sum of blood concentrations up to 24 hr, administered compound (unchanged)” value is 8754 ng/mL. Also, the level at 0.5 h in data set [1] (0.5 hr after administration) was found to be 895 ng/mL. Besides, in data set [1] (1 hr after administration), the level at 1 h stood at 4320 ng/mL. For the same molecule, the level at 2 h in data set [1] (2 hr after administration) was found to be 1920 ng/mL. The level at 4 h in data set [1] (4 hr after administration) is 1020 ng/mL. The level at 8 h in data set [1] (8 hr after administration) was found to be 533 ng/mL. Also, the level at 24 h in data set [1] (24 hr after administration) turned out to be 69 ng/mL. Besides, the “IL-2 production inhibitory concentration (IC50 ng/ml)” value in data set [2] came out at 6 ng/mL. In “physchem”, this molecule registered a solubility (thermodynamic) at 30 min of 35.1 µg/mL (≈ 28.8 µM).

Consider `C/C=C/C[C@@H](C)[C@@H](O)[C@H]1C(=O)N[C@@H]([C@@H](C)O)C(=O)N(C)CC(=O)N(C)[C@@H](CC(C)C)C(=O)N[C@@H](C(C)C)C(=O)N(C)[C@@H](CC(C)C)C(=O)N[C@@H](C)C(=O)N[C@H](C)C(=O)N(C)[C@@H](CC(C)C)C(=O)N(C)[C@@H](CC(C)C)C(=O)N(C)[C@@H](C(C)C)C(=O)N1C` [Cyclosporin C], for which, in data set [3], the nephrotoxicity result was “nephrotoxic”. The “IL-2 production inhibitory concentration (IC50 ng/ml)” value in data set [2] amounted to 12 ng/mL. This molecule had a thermodynamic solubility at 30 min in “physchem” of 29.7 µg/mL (≈ 24.4 µM).

For the molecule `C/C=C/C[C@@H](C)[C@@H](O)[C@H]1C(=O)N[C@@H]([C@@H](C)OP(=O)(O)O)C(=O)N(C)CC(=O)N(C)[C@@H](CC(C)C)C(=O)N[C@@H](C(C)C)C(=O)N(C)[C@@H](CC(C)C)C(=O)N[C@@H](C)C(=O)N[C@H](C)C(=O)N(C)[C@@H](CC(C)C)C(=O)N(C)[C@@H](CC(C)C)C(=O)N(C)[C@@H](C(C)C)C(=O)N1C` [[Phosphonothreonine^2]cyclosporin A, [phosphonothreonine^2]cyclosporin A], the “IL-2 production inhibitory concentration (IC50 ng/ml)” value in data set [2] is 49 ng/mL.
